Measurements reported in US20240076287A1, “SOLID FORMS OF A CDK2 INHIBITOR” (PFIZER INC., priority 2020, published 2024).

Key:
[1] = slurry stability experiments (solid form by PXRD); format: physicochemical; settings: for Final Form: slurry in 2-propanol/water, Aw 0.9
Description: Slurry experiments were conducted as follows. The indicated starting form of PF-07104091 was transferred to a 2 mL vial. The indicated solvent or solvent mixture was added to obtain a slurry at the specified temperature (Table 14). Additional solids were added as necessary to ensure a sufficiently thick slurry. A magnetic stir bar was added and the vial was tightly capped to prevent solvent loss. The resulting slurry was left to stir at the specified temperature. Aliquots were pulled from the slurry periodically or after a certain duration. Solids were separated from the liquid by centrifuge filtration and the solids were characterized by powder x-ray diffraction. […] (ambient), and 40° C.

[2] = moisture sorption (DVS) study; format: physicochemical

In the case of `COCc1cc(C(=O)Nc2cc([C@H]3CC[C@@H](OC(=O)NC(C)C)C3)[nH]n2)n(C)n1` [Form 1, (1R,3S)-3-[3-({[3-(methoxymethyl)-1-methyl-1H-pyrazol-5-yl]carbonyl}amino)-1H-pyrazol-5-yl]cyclopentyl propan-2-ylcarbamate], the “Final Form” value ([1]; 4 °C) is reported as “Form 3” and the “Final Form” value ([1]; ambient) is reported as “Form 3”.
For `COCc1cc(C(=O)Nc2cc([C@H]3CC[C@@H](OC(=O)NC(C)C)C3)[nH]n2)n(C)n1` [PF-07104091 monohydrate (Form 3), (1R,3S)-3-[3-({[3-(methoxymethyl)-1-methyl-1H-pyrazol-5-yl]carbonyl}amino)-1H-pyrazol-5-yl]cyclopentyl propan-2-ylcarbamate], the “thermodynamic stability of the solid form” value ([1]; at 4° C., ˜25° C. (ambient), and 40° C.) was “thermodynamically most stable form”.
With `COCc1cc(C(=O)Nc2cc([C@H]3CC[C@@H](OC(=O)NC(C)C)C3)[nH]n2)n(C)n1` [PF-07104091 (Form 2), (1R,3S)-3-[3-({[3-(methoxymethyl)-1-methyl-1H-pyrazol-5-yl]carbonyl}amino)-1H-pyrazol-5-yl]cyclopentyl propan-2-ylcarbamate] the “solid form of the post moisture sorption material” value ([2]; PXRD after DVS) was “no change in solid form”, the mass gain ([2]; at 60% RH) was about 0.7% and the mass gain ([2]; at 75% RH) was about 1%. The mass gain ([2]; at 90% RH) was about 1.6% and the hygroscopicity ([2]; moisture sorption (DVS)) was “slightly hygroscopic”.
